pIC50: −log10 of the molar value.
Assays:
PARP7 = PARP7 (Homo sapiens (Human), UniProt Q7Z3E1)
Protocol: (§5) Experimental Principle: The inhibitory effect of the test substance on the enzymatic activity of PARP1/7 is assessed by using an Enzyme-Linked Immunosorbent Assay (ELISA).
(§6) (1) Pre-coating: Add 100 μL of a PBS buffer (10 mM NaH2PO4, 10 mM Na2HPO4, 150 mM NaCl, pH 7.4) containing 20 g/mL of histone to each well of a 96-well plate, and incubate at 4° C. overnight.
(§7) (3) Add 5 μL of the test substance or solvent to each well.
(§8) (4) Add 20 μL of(PARP1 or PARP7 (50 ng/well), and incubate at 30° C. for 1 hour.
(§9) (5) Add 50 μL of streptavidin-HRP to the reaction mixture, and incubate at 30° C. for 30 minutes.
(§10) (6) Finally, add 100 μL of a citrate buffer containing H2O2 and luminol (0.1 M, pH 5.4), and measure the luminescent signal using a microplate reader (Molecular Devices SpectraMax M5).
(§11) (7) Calculate the inhibition rate of PARP1 or PARP7 enzyme activity as [(control group−treatment group)/control group]×10000. Fit the dose-response data with standard dilutions using Prism GraphPad software and calculate the concentration required to achieve 5000 inhibition of PARP1 or PARP7 enzyme activity (IC50).

PARP1 = PARP1 (Homo sapiens (Human), UniProt P09874)
Protocol: as §5, §6, §7, §8, §9, §10, §11

NCI-H1373 cells = experiment: Inhibitory effect on the proliferation of NCI-H1373 cells (CellTiter-Glo); assay type: cell-based; details: Homo sapiens, 144 h, 6 days treatment
From the text: 1. Experimental Principle: NCI-H1373 cells are a type of lung adenocarcinoma cells that overexpress PARP7.
2. Experimental Materials: NCI-H1373 cells were obtained from Nanjing Cobioer Biosciences Co., Ltd. CellTiter-Glo® (cell viability chemiluminescent assay reagent) was purchased from Promega (Catalog No. G7571). RPMI-1640 medium was obtained from ATCC (Catalog No. 30-2001). RPMI-1640 medium, penicillin/streptomycin antibiotics were purchased from WISENT. Fetal bovine serum was obtained from Biosera. The Nivo multimode reader was procured from PerkinElmer.
3. Experimental Method: NCI-H1373 cells were seeded in a white 96-well plate with 80 μL of cell suspension per well, containing 3000 NCI-H1373 cells. The cell plate was incubated overnight in a carbon dioxide (CO2) incubator.
The test compounds were serially diluted 5-fold to the 9th concentration, ranging from 2 mmol/L to 5.12 nmol/L, for a duplicate assay. 78 μL of culture medium was added to the intermediate plate, and then, according to the corresponding positions, 2 μL of each gradient-diluted compound was transferred to the intermediate plate. After thorough mixing, 20 μL of the compound solution was transferred to the cell plate. The compound concentration range in the cell plate ranged from 10 μmol/L to 0.0256 nmol/L. The cell plate was incubated in a CO2 incubator for 6 days.
Another cell plate was prepared, and the signal values were read on the day of dosing to obtain the maximum value referred to as Max in the following equation for data analysis. 25 μL of cell viability chemiluminescent assay reagent was added to each well of this cell plate, and it was incubated at room temperature for 10 minutes to stabilize the luminescent signal. Readings were taken using a multimode reader.
After 6 days of treatment, 25 μL of cell viability chemiluminescent assay reagent was added to each well of the cell plate, and it was incubated at room temperature for 10 minutes to stabilize the luminescent signal. Readings were taken using a multimode reader.
The IC50 value was determined by four-parameter curve fitting (obtained by using the “log(inhibitor) vs. response—Variable slope” model in GraphPad Prism).

[1] = Pharmacokinetic properties in SD rats after single intravenous injection and oral administration; assay type: in vivo; details: SD male rats; for F: oral bioavailability; for AUC(0-inf) / Cmax / clearance / half-life: rat, plasma
From the text: 1. Test purpose: to determine the pharmacokinetic characteristics of some of the example compound of the present invention in SD rats after single intravenous injection(IV) and oral administration(PO) by LC-MS/MS method.
2. Test material: the test drug is self-made from the example compounds of the present invention; Positive control compound RBN2397 purchased from Shanghai BioChemPartner Biotechnology Co., Ltd. SD male rats were obtained from the Laboratory Animal Management Department of Shanghai Family Planning Research Institute. Animal production license number (SCXK (Shanghai) 2018-0006).
Preparation of 0.5% methyl cellulose: 5 g of methyl cellulose were weighed and dissolved in 1000 mL of purified water.
Preparation of oral formulation: A required amount of test compound was weighed and dissolved in 0.5% methyl cellulose solution to obtain a suspension or solution of 0.5 mg/mL or 1.0 mg/mL.
Preparation of intravenous injection formulation: A required amount of test compound was weighed, and dissolved in 0.5 mL of dimethyl sulfoxide to prepare a solution of 4 mg/mL. 0.25 mL of the above solution was added into 0.5 mL of polyethylene glycol 15 hydroxystearate (solutol) and 4.25 mL of physiological saline to obtain a solution of 0.2 mg/mL.
Administration: SD male rats were orally administered (PO) after fasting overnight, and fed 4 hours after administration.
Sample Collection: blood was collected through jugular vein or other suitable vein, and 0.2 mL of blood was collected at each time point. Samples were placed into tubes containing ethylenediamine tetraacetic acid dipotassium salt and kept on ice before centrifugation. Within 1 hour after blood collection, the blood samples were centrifuged at 2-8° C. and 6800 g for 6 minutes and stored at −80° C. The time point for blood collection was 0.083, 0.25, 0.5, 1, 2, 4, 8 and 24 hours after intravenous administration, and 0.25, 0.5, 1, 2, 4, 6, 8 and 24 hours after oral administration.
The intravenous dosage was 1 mg/kg, and the pharmacokinetic parameters for oral administration were standardized to a 1 mg/kg dose.

[2] = Metabolic stability in dog liver microsomes; assay type: in vitro ADME; details: pH 7.4, 1.00 μM compound, 0.5 mg/mL protein, read-out: intrinsic clearance, Clint
Protocol: (§1) 1. Experiment purpose: This study aims to determine the metabolic stability of selected compounds from the embodiments of the invention in liver microsomes of humans, dogs, monkeys, rats, and mice using the LC-MS/MS method.
(§2) Test compounds: The test drug is self-made from the example compounds of the present invention; Positive control compound RBN2397 purchased from Shanghai BioChemPartner Biotechnology Co., Ltd.
(§3) Liver microsomes obtained from Xenotech.
(§4) The incubation was carried out at 37° C. in a CO2 incubator. The reactions were terminated by adding 150 μL of cold acetonitrile at different time points (0, 5, 15, 30, and 45 minutes). The 96-well plate was shaken at 600 rpm for 10 minutes, followed by centrifugation at 6000 rpm for 15 minutes. The supernatant (80 μL) was mixed with 140 μL of pure water, and the remaining amount of the compound was determined using LC-MS/MS. The intrinsic clearance (Clint) was calculated using the formula Clint=k/liver microsomes protein concentration, where “k” is the linear regression slope of log compound remaining percentage against incubation time.

[3] = Metabolic stability in rat liver microsomes; assay type: in vitro ADME; details: pH 7.4, 1.00 μM compound, 0.5 mg/mL protein, read-out: intrinsic clearance, Clint
Protocol: as §1, §2, §3, §4

[4] = Metabolic stability in human liver microsomes; assay type: in vitro ADME; details: pH 7.4, 1.00 μM compound, 0.5 mg/mL protein, read-out: intrinsic clearance, Clint
Protocol: as §1, §2, §3, §4

[5] = Oral gavage, standardized to a 1 mg/kg dose

PARP1, sequence (P09874 whole entry): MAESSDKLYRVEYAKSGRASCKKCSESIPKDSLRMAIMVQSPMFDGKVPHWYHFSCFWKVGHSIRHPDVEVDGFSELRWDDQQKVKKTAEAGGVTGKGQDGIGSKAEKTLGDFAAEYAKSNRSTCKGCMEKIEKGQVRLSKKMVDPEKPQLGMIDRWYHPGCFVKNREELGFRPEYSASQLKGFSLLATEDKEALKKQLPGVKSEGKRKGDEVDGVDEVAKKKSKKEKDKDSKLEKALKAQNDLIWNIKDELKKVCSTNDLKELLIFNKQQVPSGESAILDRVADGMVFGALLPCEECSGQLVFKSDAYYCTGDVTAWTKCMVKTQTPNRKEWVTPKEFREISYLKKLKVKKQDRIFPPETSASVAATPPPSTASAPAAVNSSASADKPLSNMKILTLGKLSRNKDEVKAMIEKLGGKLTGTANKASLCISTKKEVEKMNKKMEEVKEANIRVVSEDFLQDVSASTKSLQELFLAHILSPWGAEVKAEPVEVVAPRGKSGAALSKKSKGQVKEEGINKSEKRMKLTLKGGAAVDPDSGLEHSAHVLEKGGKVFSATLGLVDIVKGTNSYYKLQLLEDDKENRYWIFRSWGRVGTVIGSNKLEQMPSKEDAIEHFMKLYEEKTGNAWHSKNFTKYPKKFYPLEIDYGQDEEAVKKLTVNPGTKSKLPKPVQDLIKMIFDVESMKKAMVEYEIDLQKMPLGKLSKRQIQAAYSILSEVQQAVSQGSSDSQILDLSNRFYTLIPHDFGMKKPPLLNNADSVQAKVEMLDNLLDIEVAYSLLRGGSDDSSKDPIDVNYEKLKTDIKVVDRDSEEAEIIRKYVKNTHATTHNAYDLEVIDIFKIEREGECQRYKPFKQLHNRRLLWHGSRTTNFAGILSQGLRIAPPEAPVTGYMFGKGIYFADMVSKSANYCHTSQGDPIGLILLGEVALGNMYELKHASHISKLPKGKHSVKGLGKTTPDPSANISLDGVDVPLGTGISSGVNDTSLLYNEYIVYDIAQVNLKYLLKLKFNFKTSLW
PARP7, sequence (Q7Z3E1 whole entry): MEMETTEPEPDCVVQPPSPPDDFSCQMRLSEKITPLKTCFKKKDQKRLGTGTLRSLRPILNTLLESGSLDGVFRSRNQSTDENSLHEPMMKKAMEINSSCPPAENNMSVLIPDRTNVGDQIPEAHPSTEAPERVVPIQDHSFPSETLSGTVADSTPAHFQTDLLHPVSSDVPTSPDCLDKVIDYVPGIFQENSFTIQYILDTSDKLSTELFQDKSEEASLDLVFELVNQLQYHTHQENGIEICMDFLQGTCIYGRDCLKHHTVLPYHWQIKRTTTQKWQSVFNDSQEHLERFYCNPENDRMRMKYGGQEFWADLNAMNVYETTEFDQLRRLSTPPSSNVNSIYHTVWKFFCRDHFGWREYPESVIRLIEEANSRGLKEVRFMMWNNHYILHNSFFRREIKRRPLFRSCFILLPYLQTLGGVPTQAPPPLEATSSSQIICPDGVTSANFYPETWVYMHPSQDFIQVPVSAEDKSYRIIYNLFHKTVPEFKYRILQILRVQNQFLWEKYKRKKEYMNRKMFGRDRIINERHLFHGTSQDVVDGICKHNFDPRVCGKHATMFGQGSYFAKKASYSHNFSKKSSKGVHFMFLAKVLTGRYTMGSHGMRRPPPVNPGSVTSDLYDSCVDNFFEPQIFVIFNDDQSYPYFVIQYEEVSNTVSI

Row | SMILES | pIC50 (PARP7) | pIC50 (PARP1) | pIC50 (NCI-H1373 cells) | F ([1]; Oral gavage) [%] | AUC(0-inf) ([1]; Intravenous injection, 1 mg/kg) [µg·h/mL] | Cmax ([1]; Intravenous injection, 1 mg/kg) [µg/mL] | clearance ([1]; Intravenous injection, 1 mg/kg) [L/h/kg] | half-life ([1]; Intravenous injection, 1 mg/kg) [min] | AUC(0-inf) [1, 5] [µg·h/mL] | Cmax [1, 5] [µg/mL] | also measured
1 | CO[C@H]1C[C@@H](CCC(=O)N2CCN(c3ncc(C(F)(F)F)cn3)CC2)N(c2cc(C(F)(F)F)c(=O)[nH]n2)C1 [Compound 34] | 8.48 | 7.87 | – | – | – | – | – | – | – | – | –
2 | C[C@H]1CC[C@@H](CCC(=O)N2CCN(c3ncc(C(F)(F)F)cn3)CC2)N1c1cc(C(F)(F)F)c(=O)[nH]n1 [Compound 39] | 8.10 | 7.22 | – | – | – | – | – | – | – | – | –
3 | O=C(CC[C@@H]1C[C@@H](Oc2cc(F)cc(F)c2)CN1c1cc(C(F)(F)F)c(=O)[nH]n1)N1CCN(c2ncc(C(F)(F)F)cn2)CC1 [Compound 51] | – | – | 7.16 | – | – | – | – | – | – | – | –
4 | C[C@H]1CC(CCC(=O)N2CCN(c3ncc(C(F)(F)F)cn3)CC2)N(c2cc(C(F)(F)F)c(=O)[nH]n2)C1 (some centres unmarked) [Compound 30] | 8.29 | 8.12 | – | – | – | – | – | – | – | – | –
5 | O=C(CC[C@@H]1C[C@@H](c2ccccc2)CN1c1cc(C(F)(F)F)c(=O)[nH]n1)N1CCN(c2ncc(C(F)(F)F)cn2)CC1 [Compound 52] | – | – | 7.02 | – | – | – | – | – | – | – | –
6 | O=C(CC[C@@H]1C[C@@H](Oc2cncnc2)CN1c1cc(C(F)(F)F)c(=O)[nH]n1)N1CCN(c2ncc(C(F)(F)F)cn2)CC1 [Compound 63] | – | – | 7.91 | – | – | – | – | – | – | – | –
7 | CCO[C@@H]1C[C@@H](C(=O)N2CCN(c3ncc(C(F)(F)F)cn3)CC2)N(c2cc(C(F)(F)F)c(=O)[nH]n2)C1 [Compound 71] | – | – | 7.35 | – | – | – | – | – | – | – | –
8 | C[C@@H](COCCC(=O)N1CCN(c2ncc(C(F)(F)F)cn2)CC1)Nc1cn[nH]c(=O)c1C(F)(F)F [RBN-2397, reference compound] | – | – | – | 3.76 | 0.288 | 0.634 | 3.49 | 20.4 | 0.0115 | 0.00555 | CLint scaled at 1 μM [2]: 2.45 L/h/kg; CLint scaled at 1 μM [3]: 8.65 L/h/kg; CLint scaled at 1 μM [4]: 5.28 L/h/kg
9 | C[C@@H]1C[C@@H](CCC(=O)N2CCN(c3ncc(C(F)(F)F)cn3)CC2)N(c2cc(C(F)(F)F)c(=O)[nH]n2)C1 [Compound 29] | 7.59 | 7.74 | – | – | – | – | – | – | – | – | –
10 | O=C(COC[C@@H]1CCCN1c1cc(C(F)(F)F)c(=O)[nH]n1)N1CCN(c2ncc(C(F)(F)F)cn2)CC1 [Compound 1] | – | – | 7.42 | 21.97 | 0.36 | 0.72 | 2.81 | 34.8 | 0.0892 | 0.0535 | –
11 | O=C(CC[C@@H]1C[C@H](Oc2ccccc2)CN1c1cc(C(F)(F)F)c(=O)[nH]n1)N1CCN(c2ncc(C(F)(F)F)cn2)CC1 [Compound 19] | – | – | – | 14.34 | 0.397 | 0.477 | 2.53 | 40.8 | 0.0607 | 0.0151 | –
12 | O=C(CC[C@@H]1C[C@@H](F)CN1c1cc(C(F)(F)F)c(=O)[nH]n1)N1CCN(c2ncc(C(F)(F)F)cn2)CC1 [Compound 20] | – | – | 7.91 | 15.53 | 0.523 | 0.734 | 1.92 | 49.2 | 0.0944 | 0.015 | CLint scaled at 1 μM [2]: 1.72 L/h/kg; CLint scaled at 1 μM [3]: 4.46 L/h/kg; CLint scaled at 1 μM [4]: 2.8 L/h/kg
13 | O=C(CC[C@@H]1C[C@@H]2CCC[C@@H]2N1c1cc(C(F)(F)F)c(=O)[nH]n1)N1CCN(c2ncc(C(F)(F)F)cn2)CC1 [Compound 24] | 8.68 | 8.39 | – | – | – | – | – | – | – | – | –
